In brackets after ≈: the same amount, converted by molar mass. Where two headings read alike, the source gives them in different places.
Legend:
[1] = 25° C., cited from earlier work
[2] = Solubility in aqueous 0.2% SDS; assay type: physicochemical; settings: 37 °C, aqueous with cosolvent or surfactant or cyclodextrin, thermodynamic from solid
Procedure: About 5.5 mg itraconazole or an amount of the preparations obtained according to Example 3 containing 5.5 mg itraconazole was placed in 500 mL aqueous solution of 0.2% SDS. The mixture was stirred at 37° C. for 24 hours. About 5 mL of the solution was taken and filtered through a 0.45 μm filter. The filtrate was analyzed by HPLC for concentration of itraconazole.

Compound	volume of solvent required to dissolve 1 gram ([1]; ethanol) [mL]	volume of solvent required to dissolve 1 gram ([1]; water) [mL]	solubility at 24 h [2] [µg/mL]
CC(=O)Oc1ccccc1C(=O)O [aspirin]	5	300	–
CCC(C)n1ncn(-c2ccc(N3CCN(c4ccc(OCC5COC(Cn6cncn6)(c6ccc(Cl)cc6Cl)O5)cc4)CC3)cc2)c1=O (stereo not drawn) [itraconazole]	–	–	6.44 ± 0.08 (≈ 9.13 µM)
